How the values were obtained:
Test in all cases: Anti-proliferative assay, cell-titre luminescent reagent, 72 h (GVK-BIO)
Format in all cases: cell-based
[1] = tested on: SK-N-SH neuroblastoma cells; conditions: Homo sapiens, SK-N-SH, 30, 3, 0.3 and 0.03 μM, linear regression (Tables 2-4)
Method: (§1) The ability of compounds 4001, 4002, 4008, 4010, 4011, 4013-4015, 4018, 4026, 4045-4113 and 4115-4127 to inhibit the proliferation of cancer cells representative of neuroblastoma, melanoma, prostate cancer, colorectal cancer, non-small cell lung carcinoma, and triple negative breast cancer was assessed. These studies were conducted by contract research (GVK-BIO). Briefly, a pre-determined number of cells as calculated from cell growth assays for each of the cell lines employed were seeded into their respective culture medium (using ATCC culture parameters—http://www.atcc.org) and cultured for 24 h at 37° C. and 5% CO2 in 96-well culture plates. Once attached, each cell line was then exposed to various concentrations of each respective analogue (30, 3, 0.3 and 0.03 μM for compounds in Tables 2, 3 and 4; 30, 10, 3, 1, 0.3 and 0.1 μM for compounds in Table 5), cultured for a further 72 h and exposed to cell-titre luminescent reagent (100 μL/well) for a further 30 min). Luminescence was captured using an EnVision multilabel reader and the data for each analogue concentration compared against no treatment control. For compounds in Tables 2-4, semi-log plots of Percent of Control versus concentration were prepared and IC50 determined using linear regression analysis. For compounds in Table 5, cell viability was normalized to control (vehicle alone) and dose-response curves, and half maximal effective concentration (EC50) values were determined using Graph Pad Prism 6 (nonlinear regression sigmoidal dose-response variable slope).

[2] = tested on: PC3 prostate cancer cells; conditions: 30, 3, 0.3 and 0.03 μM, linear regression (Tables 2-4)
Method: as §1

[3] = tested on: MDA-MB-231 triple negative breast cancer cells; conditions: Homo sapiens, MDA-MB-231, 72 h, 30, 3, 0.3 and 0.03 μM, linear regression (Tables 2-4)
Method: as §1

[4] = tested on: SK-Mel-28 melanoma cells; conditions: Homo sapiens, SK-MEL-28, 72 h, 30, 3, 0.3 and 0.03 μM, linear regression (Tables 2-4)
Method: as §1

[5] = tested on: A549 non-small cell lung carcinoma cells; conditions: Homo sapiens, A549, 72 h, 30, 3, 0.3 and 0.03 μM, linear regression (Tables 2-4), read-out: IC50/μM Lung (NSLC) A549
Method: as §1

[6] = tested on: DU145 prostate cancer cells; conditions: Homo sapiens, DU-145, 72 h, 30, 3, 0.3 and 0.03 μM, linear regression (Tables 2-4)
Method: as §1

[7] = tested on: CaCo2 colorectal cancer cells; conditions: Homo sapiens, Caco-2, 72 h, 30, 3, 0.3 and 0.03 μM, linear regression (Tables 2-4)
Method: as §1

| IC50 [1] [µM] | IC50 [2] [µM] | IC50 [3] [µM] | IC50 [4] [µM] | IC50 [5] [µM] | IC50 [6] [µM] | IC50 [7] [µM] | SMILES |
| --- | --- | --- | --- | --- | --- | --- | --- |
| > 30 | > 30 | > 30 | 67.3 | > 30 | > 30 | > 30 | Cc1c(C)n(CCCN(C)C)c2ccc(C(=O)N3CCN(CCc4ccccc4)CC3)cc12 [Compound 4018, (1-(3-(dimethylamino)propyl)-2,3-dimethyl-1H-indol-5-yl)(4-phenethylpiperazin-1-yl)methanone] |
| 3.7 | 6.1 | 3.5 | 5.9 | 3.8 | 5 | 15.4 | CN(C)CCCn1ccc2cc(Nc3ccc(C(=O)Nc4ccccc4)cc3)ccc21 [Compound 4026, 4-((1-(3-(dimethylamino)propyl)-1H-indol-5-yl)amino)-N-phenylbenzamide] |
| 3.8 | 5.7 | 2.6 | 3.7 | 3.7 | 5.5 | 5.2 | CN(C)CCCn1ccc2cc(Cc3cccc(C(=O)Nc4ccc(F)cc4)c3)ccc21 [Compound 4045, 3-((1-(3-(dimethylamino)propyl)-1H-indol-5-yl)methyl)-N-(4-fluorophenyl)benzamide] |
| 3.2 | 1.1 | 1.9 | 1.9 | 1.7 | 2.6 | 3.2 | COc1ccc(NC(=O)c2cccc(Cc3ccc4c(ccn4CCCN(C)C)c3)c2)cc1 [Compound 4046, 3-((1-(3-(dimethylamino)propyl)-1H-indol-5-yl)methyl)-N-(4-methoxyphenyl)benzamide] |
| 3.1 | 3.1 | 3 | 2.5 | 3 | 3.4 | 3 | CN(C)CCCn1ccc2cc(Cc3cccc(C(=O)Nc4ccc5c(c4)OCO5)c3)ccc21 [Compound 4047, N-(benzo[d][1,3]dioxol-5-yl)-3-((1-(3-(dimethylamino)propyl)-1H-indol-5-yl)methyl)benzamide] |
| 3.9 | 3.8 | 3.2 | 3.1 | 3 | 3.3 | 6.9 | CN(C)CCCn1ccc2cc(Cc3cccc(C(=O)Nc4cccc(F)c4)c3)ccc21 [Compound 4048, 3-((1-(3-(dimethylamino)propyl)-1H-indol-5-yl)methyl)-N-(3-fluorophenyl)benzamide] |
| 3.3 | 3.4 | 3.4 | 3.1 | 3 | 3.3 | 3.2 | COc1cccc(NC(=O)c2cccc(Cc3ccc4c(ccn4CCCN(C)C)c3)c2)c1 [Compound 4049, 3-((1-(3-(dimethylamino)propyl)-1H-indol-5-yl)methyl)-N-(3-methoxyphenyl)benzamide] |
| 4 | 4.2 | 3.7 | 2.6 | 3.1 | 4.3 | 4.2 | Cc1c(C)n(CCCN(C)C)c2ccc(Cc3cccc(C(=O)Nc4ccc(F)cc4)c3)cc12 [Compound 4050] |
| 4.3 | 17.3 | 4.5 | 3.4 | 4.1 | 4.9 | 16.1 | COc1ccc(NC(=O)c2cccc(Cc3ccc4c(c3)c(C)c(C)n4CCCN(C)C)c2)cc1 [Compound 4051] |
| 31.9 | 11.1 | 30 | 6.2 | 8 | 13.8 | 27.1 | Cc1c(C)n(CCCN(C)C)c2ccc(Cc3cccc(C(=O)Nc4ccc5c(c4)OCO5)c3)cc12 [Compound 4052, N-(benzo[d][1,3]dioxol-5-yl)-3-((1-(3-(dimethylamino)propyl)-2,3-dimethyl-1H-indol-5-yl)methyl)benzamide] |
| 3.8 | 3.7 | 2.5 | 2.5 | 2 | 4.3 | 4.6 | Cc1c(C)n(CCCN(C)C)c2ccc(Cc3cccc(C(=O)Nc4cccc(F)c4)c3)cc12 [Compound 4053] |
| 4.5 | 3.9 | 4.6 | 4.1 | 3.9 | 4.5 | 5.1 | COc1cccc(NC(=O)c2cccc(Cc3ccc4c(c3)c(C)c(C)n4CCCN(C)C)c2)c1 [Compound 4054] |
| 4.6 | 7.9 | 4.7 | 5.1 | 4.7 | 4.5 | 6.8 | Cc1c(C)n(CCCN(C)C)c2ccc(Cc3cccc(C(=O)Nc4ccccc4)c3)cc12 [Compound 4055] |
| 3.4 | 7 | 3 | 3.4 | 4 | 4.3 | 4.7 | CN(C)CCCn1ccc2cc(Oc3cccc(C(=O)Nc4ccc(F)cc4)c3)ccc21 [Compound 4056, 3-((1-(3-(dimethylamino)propyl)-1H-indol-5-yl)oxy)-N-(4-fluorophenyl)benzamide] |
| 4.9 | 8.7 | 3 | 2.7 | 4.4 | 6.4 | 10.3 | COc1ccc(NC(=O)c2cccc(Oc3ccc4c(ccn4CCCN(C)C)c3)c2)cc1 [Compound 4057, 3-((1-(3-(dimethylamino)propyl)-1H-indol-5-yl)oxy)-N-(4-methoxyphenyl)benzamide] |
| 3.4 | 7.2 | 3.8 | 2.7 | 4.7 | 4.7 | 9.7 | CN(C)CCCn1ccc2cc(Oc3cccc(C(=O)Nc4ccc5c(c4)OCO5)c3)ccc21 [Compound 4058, N-(benzo[d][1,3]dioxol-5-yl)-3-((1-(3-(dimethylamino)propyl)-1H-indol-5-yl)oxy)benzamide] |
| 11.3 | > 30 | 13.2 | 15.5 | 13.4 | > 30 | > 30 | CN(C)CCCn1ccc2cc(Oc3cccc(C(=O)Nc4cccc(F)c4)c3)ccc21 [Compound 4059, 3-((1-(3-(dimethylamino)propyl)-1H-indol-5-yl)oxy)-N-(3-fluorophenyl)benzamide] |
| 3.6 | 5 | 2.8 | 2.8 | 4.2 | 4 | 4 | COc1cccc(NC(=O)c2cccc(Oc3ccc4c(ccn4CCCN(C)C)c3)c2)c1 [Compound 4060] |
| 2.3 | 2.2 | 3.2 | 2.5 | 3 | 3 | 3.7 | Cc1c(C)n(CCCN(C)C)c2ccc(Oc3cccc(C(=O)Nc4ccc(F)cc4)c3)cc12 [Compound 4061] |
| 4.8 | 9 | 3.7 | 4.3 | 2.3 | 4.4 | 6 | COc1ccc(NC(=O)c2cccc(Oc3ccc4c(c3)c(C)c(C)n4CCCN(C)C)c2)cc1 [Compound 4062] |
| 4.2 | 4.9 | 3.7 | 3.8 | 3 | 3.6 | 9.6 | Cc1c(C)n(CCCN(C)C)c2ccc(Oc3cccc(C(=O)Nc4ccc5c(c4)OCO5)c3)cc12 [Compound 4063, N-(benzo[d][1,3]dioxol-5-yl)-3-((1-(37(dimethylamino)propyl)-2,3-dimethyl-1H-indol-5-yl)oxy)benzamide] |
| 2.4 | 2.6 | 3.3 | 2.7 | 3.5 | 3.4 | 3.8 | Cc1c(C)n(CCCN(C)C)c2ccc(Oc3cccc(C(=O)Nc4cccc(F)c4)c3)cc12 [Compound 4064] |
